Assay results taken from patent publication US20240287080A1 (IDEAYA Biosciences Inc., priority 2021, published 2024).

Molecular target: T1, Pol theta (1-899) (Homo sapiens, UniProt O75417)
T1 construct: Pol theta (1-899) (5 nM) in assay buffer
Test: Pol theta ATPase activity, NADH oxidation-coupled enzymatic assay (ATPase NADH coupling: Standard Screening: hPolQ)
Type: biochemical
Details: Pol theta (1-899) 5 nM, NADH oxidation-coupled ATPase assay; compounds of Table 3
Procedure, shortened: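 Rates of ATP hydrolysis taken from 60-min A340 traces of NADH oxidation via PK/LDH coupling, then fit four-parameter for IC50, Hill slope and max inhibition. Enzyme (5 nM, 1-899) and compounds preincubated 15 min before ATP 100 μM and 50-thymine ssDNA 300 nM (stock, equal volume added).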

T1 sequence (O75417 1-899): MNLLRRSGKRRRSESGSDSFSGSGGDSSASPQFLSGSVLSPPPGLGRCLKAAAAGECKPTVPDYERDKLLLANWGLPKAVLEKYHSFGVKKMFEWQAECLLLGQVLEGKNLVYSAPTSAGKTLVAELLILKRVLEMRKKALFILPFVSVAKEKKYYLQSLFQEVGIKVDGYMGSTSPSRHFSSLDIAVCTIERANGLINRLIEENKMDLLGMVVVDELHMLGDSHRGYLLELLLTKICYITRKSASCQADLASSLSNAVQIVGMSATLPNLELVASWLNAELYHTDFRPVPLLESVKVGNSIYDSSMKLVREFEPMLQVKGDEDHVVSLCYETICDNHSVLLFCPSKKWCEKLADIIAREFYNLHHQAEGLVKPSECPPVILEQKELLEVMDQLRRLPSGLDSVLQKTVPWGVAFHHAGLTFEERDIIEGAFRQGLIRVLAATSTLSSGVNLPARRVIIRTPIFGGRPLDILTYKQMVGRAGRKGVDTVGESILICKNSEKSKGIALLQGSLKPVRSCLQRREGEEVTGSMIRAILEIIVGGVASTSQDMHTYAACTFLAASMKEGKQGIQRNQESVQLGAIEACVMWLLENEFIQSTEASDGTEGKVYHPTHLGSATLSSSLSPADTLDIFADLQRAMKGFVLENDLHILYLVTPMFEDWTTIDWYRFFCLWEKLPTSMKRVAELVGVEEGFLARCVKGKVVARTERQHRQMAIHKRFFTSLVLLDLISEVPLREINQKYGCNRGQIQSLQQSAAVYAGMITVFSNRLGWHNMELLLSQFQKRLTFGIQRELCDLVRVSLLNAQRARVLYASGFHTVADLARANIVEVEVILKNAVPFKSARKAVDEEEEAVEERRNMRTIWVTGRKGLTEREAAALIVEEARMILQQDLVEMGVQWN

| SMILES | IC50 [nM] |
| --- | --- |
| COc1cnc(C)c(F)c1-c1cc(C)ncc1C(=O)Nc1nnc(O[C@H]2CC[C@@H](CO)CC2)s1 [Example 257, 3′-fluoro-N-(5-(((1s,4s)-4-(hydroxymethyl)cyclohexyl)oxy)-1,3,4-thiadiazol-2-yl)-5′-methoxy-2′,6-dimethyl-[4,4′-bipyridine]-3-carboxamide] | ≤ 200 |
| CNC(=O)c1ccc(-c2cc(C)ncc2C(=O)Nc2nnc(OC)s2)cn1 [Example 479, N3′-(5-methoxy-1,3,4-thiadiazol-2-yl)-N6,6′-dimethyl-[3,4′-bipyridine]-3′,6-dicarboxamide] | 1000 to 10000 |
| COc1nnc(NC(=O)c2cc(OC)c(C)cc2-c2cc(Cl)ncc2OC)s1 [Example 301, 2-(2-chloro-5-methoxypyridin-4-yl)-5-methoxy-N-(5-methoxy-1,3,4-thiadiazol-2-yl)-4-methylbenzamide] | ≤ 200 |
| COc1nnc(NC(=O)c2cnc(C)cc2-c2ccc3ccn(C)c3c2)s1 [Example 480, N-(5-methoxy-1,3,4-thiadiazol-2-yl)-6-methyl-4-(1-methyl-1H-indol-6-yl)pyridine-3-carboxamide] | 1000 to 10000 |
| COc1nnc(NC(=O)c2cnc(C)cc2-c2cncc(C(=O)N(C)C)c2)s1 [Example 483, N3′-(5-methoxy-1,3,4-thiadiazol-2-yl)-N5,N5,6′-trimethyl-[3,4′-bipyridine]-3′,5-dicarboxamide] | 1000 to 10000 |
| COc1nnc(NC(=O)c2cnc(C)cc2-c2cccc(S(=O)(=O)N(C)C)c2)s1 [Example 396, 4-[3-(dimethylsulfamoyl)phenyl]-N-(5-methoxy-1,3,4-thiadiazol-2-yl)-6-methylpyridine-3-carboxamide] | 1000 to 10000 |
| COc1nnc(NC(=O)c2cnc(C)cc2-c2cc(F)cc(C#N)c2)s1 [Example 439, 4-(3-cyano-5-fluorophenyl)-N-(5-methoxy-1,3,4-thiadiazol-2-yl)-6-methylpyridine-3-carboxamide] | 500 to 1000 |
| COc1cnc(Cl)cc1-c1cc(C)ncc1C(=O)Nc1nnc(O[C@@H]2C[C@@H]3C[C@H]2C[C@H]3O)s1 (single isomer, unassigned) [Example 263] | ≤ 200 |
| COc1nnc(NC(=O)c2cnc(C)cc2-c2ccc3c(c2)OCO3)s1 [Example 409, 4-(2H-1,3-benzodioxol-5-yl)-N-(5-methoxy-1,3,4-thiadiazol-2-yl)-6-methylpyridine-3-carboxamide] | 500 to 1000 |
| COc1cnc(Br)cc1-c1cc(C)ncc1C(=O)Nc1nnc(O[C@@H]2CCC[C@@H](O)C2)s1 [Example 284, 2′-bromo-N-(5-(((1R,3R)-3-hydroxycyclohexyl)oxy)-1,3,4-thiadiazol-2-yl)-5′-methoxy-6-methyl-[4,4′-bipyridine]-3-carboxamide] | ≤ 200 |
| COc1nnc(NC(=O)c2cc(-c3cc(Cl)ncc3OC)ncc2C)s1 [Example 285, 2′-chloro-5′-methoxy-N-(5-methoxy-1,3,4-thiadiazol-2-yl)-5-methyl-[2,4′-bipyridine]-4-carboxamide] | 1000 to 10000 |
| COc1cnc(Cl)cc1-c1cc(C)ncc1C(=O)Nc1nnc(O[C@H]2CO[C@H]3OCC[C@H]32)s1 [Example 262, 2′-chloro-N-(5-(((3R,3aS,6aR)-hexahydrofuro[2,3-b]furan-3-yl)oxy)-1,3,4-thiadiazol-2-yl)-5′-methoxy-6-methyl-[4,4′-bipyridine]-3-carboxamide] | ≤ 200 |
| COc1nnc(NC(=O)c2cnc(C)cc2-c2ccc3cn(C)nc3c2)s1 [Example 417, N-(5-methoxy-1,3,4-thiadiazol-2-yl)-6-methyl-4-(2-methyl-2H-indazol-6-yl)nicotinamide] | 1000 to 10000 |
| COc1nnc(NC(=O)c2ccc(C)cc2-c2cc(Cl)ncc2OC)s1 [Example 279, 2-(2-chloro-5-methoxypyridin-4-yl)-N-(5-methoxy-1,3,4-thiadiazol-2-yl)-4-methylbenzamide] | ≤ 200 |
| COc1nnc(NC(=O)c2cnc(C)cc2-c2cnc3ccccc3c2)s1 [Example 394, N-(5-methoxy-1,3,4-thiadiazol-2-yl)-6-methyl-4-(quinolin-3-yl)pyridine-3-carboxamide] | 1000 to 10000 |

More lines, now with the values ahead:

| IC50 [nM] | SMILES |
| --- | --- |
| ≤ 200 | COc1cnc(Cl)cc1-c1cc(C)ncc1C(=O)Nc1nnc(O[C@H]2CO[C@H]3[C@@H]2OC[C@H]3O)s1 [Example 237, 2′-chloro-N-(5-(((3S,3aR,6R,6aR)-6-hydroxyhexahydrofuro[3,2-b]furan-3-yl)oxy)-1,3,4-thiadiazol-2-yl)-5′-methoxy-6-methyl-[4,4′-bipyridine]-3-carboxamide] |
| 1000 to 10000 | COc1nnc(NC(=O)c2cnc(C)cc2-c2cnccc2C(F)(F)F)s1 [Example 481, N-(5-methoxy-1,3,4-thiadiazol-2-yl)-6′-methyl-4-(trifluoromethyl)-[3,4′-bipyridine]-3′-carboxamide] |
| 1000 to 10000 | CCCCc1ccc(-c2cc(C)ncc2C(=O)Nc2nnc(OC)s2)cc1 [Example 484, 4-(4-butylphenyl)-N-(5-methoxy-1,3,4-thiadiazol-2-yl)-6-methylpyridine-3-carboxamide] |
| 500 to 1000 | COc1ccc(F)c(-c2cc(C)ncc2C(=O)Nc2nnc(OC)s2)c1 [Example 447, 4-(2-fluoro-5-methoxyphenyl)-N-(5-methoxy-1,3,4-thiadiazol-2-yl)-6-methylpyridine-3-carboxamide] |
| 200 to 500 | COc1cnc(Cl)cc1-c1cc(C)ncc1C(=O)Nc1nnc(OC2CCN(CC(F)(F)F)CC2)s1 [Example 278, 2′-chloro-5′-methoxy-6-methyl-N-(5-((1-(2,2,2-trifluoroethyl)piperidin-4-yl)oxy)-1,3,4-thiadiazol-2-yl)-[4,4′-bipyridine]-3-carboxamide] |
| 1000 to 10000 | COc1nnc(NC(=O)c2cnc(C)cc2-c2ccc3c(c2)OCCN3C)s1 [Example 418, N-(5-methoxy-1,3,4-thiadiazol-2-yl)-6-methyl-4-(4-methyl-3,4-dihydro-2H-1,4-benzoxazin-7-yl)pyridine-3-carboxamide] |
| ≤ 200 | COc1cnc(Cl)cc1-c1cc(C)ncc1C(=O)Nc1nnc(OC2CCN(C3COC3)CC2)s1 [Example 280, 2′-chloro-5′-methoxy-6-methyl-N-(5-((1-(oxetan-3-yl)piperidin-4-yl)oxy)-1,3,4-thiadiazol-2-yl)-[4,4′-bipyridine]-3-carboxamide] |
| 500 to 1000 | COc1nnc(NC(=O)c2cnc(C)cc2-c2ccc3ccccc3c2)s1 [Example 363, N-(5-methoxy-1,3,4-thiadiazol-2-yl)-6-methyl-4-(naphthalen-2-yl)pyridine-3-carboxamide] |

Same assay, conditions: Table 4; Pol theta (1-899) 5 nM, ATP, dT50 ssDNA

| IC50 [nM] | SMILES |
| --- | --- |
| ≤ 200 | COc1cnc(Cl)cc1-c1cc(C)ncc1C(=O)Nc1nnc(O[C@H]2CC[C@@H](O)CC2)s1 (single isomer, unassigned) [Example 26, 2′-chloro-N-(5-(((1s,4s)-4-hydroxycyclohexyl)oxy)-1,3,4-thiadiazol-2-yl)-5′-methoxy-6-methyl-[4,4′-bipyridine]-3-carboxamide] |
| 200 to 500 | COc1nnc(NC(=O)c2cnc(C)cc2-c2c(Cl)cccc2OC)s1 [Example 35, 4-(2-chloro-6-methoxyphenyl)-N-(5-methoxy-1,3,4-thiadiazol-2-yl)-6-methylnicotinamide] |
| ≤ 200 | COc1nnc(NC(=O)c2cnc(C)cc2-c2cc(C(F)F)ncc2OC)s1 [Example 70, 2′-(difluoromethyl)-5′-methoxy-N-(5-methoxy-1,3,4-thiadiazol-2-yl)-6-methyl-(4,4′-bipyridine)-3-carboxamide] |

| SMILES | IC50 [nM] |
| --- | --- |
| COc1cnc(Cl)cc1-c1cc(C)ncc1C(=O)Nc1nnc(O[C@H]2C[C@@H](O)C2)s1 [Example 15, 2′-chloro-N-(5-((1s,3s)-3-hydroxycyclobutoxy)-1,3,4-thiadiazol-2-yl)-5′-methoxy-6-methyl-(4,4′-bipyridine)-3-carboxamide] | ≤ 200 |

Same assay, conditions: Table 5; Pol theta (1-899) 5 nM, ATP, dT50 ssDNA

| SMILES | IC50 [nM] |
| --- | --- |
| COc1cnc(Cl)cc1-c1cc(C)ncc1C(=O)Nc1nnc(O[C@H]2COCC2(F)F)s1 (single isomer, unassigned) [Example 128] | ≤ 200 |
| COc1cnc(Cl)cc1-c1cc(C)ncc1C(=O)Nc1nnc(O[C@H]2CO[C@@H](C)C2)s1 (single isomer, unassigned) [Example 191] | ≤ 200 |
| Cc1cc(-c2cc(Cl)ncc2OC(F)F)c(C(=O)Nc2nnc(O[C@@H]3CCOC3)s2)cn1 [Example 82, (R)-2′-chloro-5′-(difluoromethoxy)-6-methyl-N-(5-((tetrahydrofuran-3-yl)oxy)-1,3,4-thiadiazol-2-yl)-(4,4′-bipyridine)-3-carboxamide] | ≤ 200 |

Second part, the compound after the results:

| IC50 [nM] | SMILES |
| --- | --- |
| ≤ 200 | COc1cnc(Cl)cc1-c1cc(C)ncc1C(=O)Nc1nnc(O[C@@H]2C[C@H]3CC[C@@H]2O3)s1 (single isomer, unassigned) [Example 216] |
| ≤ 200 | COc1cnc(Cl)cc1-c1cc(C)ncc1C(=O)Nc1nnc(O[C@H]2CC[C@H]([C@@H](C)O)CC2)s1 (single isomer, unassigned) [Example 199] |
| ≤ 200 | COc1cnc(Cl)cc1-c1cc(C)ncc1C(=O)Nc1nnc(O[C@@H]2COCC2(F)F)s1 (single isomer, unassigned) [Example 127] |
| 200 to 500 | COc1nnc(NC(=O)c2cnc(C)cc2-c2ccnc(Cl)c2)s1 [Example 100, 2′-chloro-N-(5-methoxy-1,3,4-thiadiazol-2-yl)-6-methyl-(4,4′-bipyridine)-3-carboxamide] |
| 200 to 500 | COc1nnc(NC(=O)c2cnc(C3CCCC3)cc2-c2cc(Cl)ncc2OC)s1 [Example 143, 2′-chloro-6-cyclopentyl-5′-methoxy-N-(5-methoxy-1,3,4-thiadiazol-2-yl)-(4,4′-bipyridine)-3-carboxamide] |
| ≤ 200 | COc1cnc(C)c(F)c1-c1cc(C)ncc1C(=O)Nc1nnc(O[C@@H]2C[C@H]3CC[C@@H]2O3)s1 (single isomer, unassigned) [Example 218] |
